The record followed here is patent US11802111B2, “Cyclobutyl amide monoacylglycerol lipase modulators” (Janssen Pharmaceutica NV, priority 2020, dated 2023).

The target in this assay is human MGL from HeLa cells (Homo sapiens (Human), UniProt Q99685). The assay can be described thus: MGL in vitro activity assay ([glycerol-1,3-3H]-oleoyl glycerol hydrolysis, activated carbon filtration). It is filed as biochemical. The settings on record: 300 nM [Glycerol-1,3-3H]-oleoyl glycerol, one hour. The method in brief: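 Endogenous human MGL in HeLa cells/homogenates incubated 1 h with test compounds and 300 nM [glycerol-1,3-3H]-oleoyl glycerol. Released 3H-glycerol passing an activated carbon filter counted as activity; screening at 10 μM compound, top IC50 concentration set empirically.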
human MGL from HeLa cells, sequence (Q99685 whole entry): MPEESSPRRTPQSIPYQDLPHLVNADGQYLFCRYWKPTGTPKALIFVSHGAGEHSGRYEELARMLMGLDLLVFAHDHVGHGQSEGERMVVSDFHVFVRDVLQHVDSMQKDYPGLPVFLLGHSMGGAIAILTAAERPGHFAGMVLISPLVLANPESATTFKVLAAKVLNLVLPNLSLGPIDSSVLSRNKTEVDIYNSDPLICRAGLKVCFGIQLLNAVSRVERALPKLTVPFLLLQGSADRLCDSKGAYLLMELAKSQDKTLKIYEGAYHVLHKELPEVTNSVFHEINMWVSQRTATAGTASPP
In turn, `C[C@]1(O)C[C@@H](C(=O)N2CC3(CCC(Cc4ccc(OC(F)F)cc4)CC3)C2)C1` [Example 161, (7-(4-(Difluoromethoxy)benzyl)-2-azaspiro[3.5]nonan-2-yl)((1s,3s)-3-hydroxy-3-methylcyclobutyl)methanone] displayed an IC50 of 19 nM.
Under `C[C@]1(O)C[C@@H](C(=O)N2CC3(CCC(Cc4ccc(C(F)F)cc4)CC3)C2)C1` [Example 162, (7-(4-(Difluoromethyl)benzyl)-2-azaspiro[3.5]nonan-2-yl)((1s,3s)-3-hydroxy-3-methylcyclobutyl)methanone] stands 29 nM; under `C[C@]1(O)C[C@@H](C(=O)N2CC3(CCC(Cc4cccc(C(F)F)c4)CC3)C2)C1` [Example 163, (7-(3-(Difluoromethyl)benzyl)-2-azaspiro[3.5]nonan-2-yl)((1s,3s)-3-hydroxy-3-methylcyclobutyl)methanone], 61 nM.
`C[C@]1(O)C[C@@H](C(=O)N2CC3(CC(Cc4ccccc4)C3)C2)C1` [Example 164, (6-Benzyl-2-azaspiro[3.3]heptan-2-yl)((1s,3s)-3-hydroxy-3-methylcyclobutyl)methanone]: it took 52 nM to reach half-maximal inhibition (IC50).
Under `Cc1cccc(CC2CC3(C2)CN(C(=O)[C@H]2C[C@@](C)(O)C2)C3)c1` [Example 165, ((1s,3s)-3-Hydroxy-3-methylcyclobutyl)(6-(3-methylbenzyl)-2-azaspiro[3.3]heptan-2-yl)methanone] stands 21 nM; under `Cc1ccc(CC2CC3(C2)CN(C(=O)[C@H]2C[C@@](C)(O)C2)C3)cc1` [Example 166, ((1s,3s)-3-Hydroxy-3-methylcyclobutyl)(6-(4-methylbenzyl)-2-azaspiro[3.3]heptan-2-yl)methanone], 14 nM; under `C[C@]1(O)C[C@@H](C(=O)N2CC3(CC(Cc4ccccn4)C3)C2)C1` [Example 167, ((1s,3s)-3-Hydroxy-3-methylcyclobutyl)(6-(pyridin-2-ylmethyl)-2-azaspiro[3.3]heptan-2-yl)methanone], 1390 nM.
For the compound `C[C@]1(O)C[C@@H](C(=O)N2CC3(CC(Cc4cccnc4)C3)C2)C1` [Example 168, ((1s,3s)-3-Hydroxy-3-methylcyclobutyl)(6-(pyridin-3-ylmethyl)-2-azaspiro[3.3]heptan-2-yl)methanone], the IC50 turned out to be 1370 nM.
Then `C[C@]1(O)C[C@@H](C(=O)N2CCC3(CC2)CC(Cc2ccccc2)C3)C1` [Example 172, (2-Benzyl-7-azaspiro[3.5]nonan-7-yl)((1s,3s)-3-hydroxy-3-methylcyclobutyl)methanone], with 74 nM; and `Cc1ccc(CC2CC3(CCN(C(=O)[C@H]4C[C@@](C)(O)C4)CC3)C2)cc1` [Example 173, ((1s,3s)-3-Hydroxy-3-methylcyclobutyl)(2-(4-methylbenzyl)-7-azaspiro[3.5]nonan-7-yl)methanone], with 28 nM.
Under `Cc1ccccc1CC1CC2(C1)CN(C(=O)[C@H]1C[C@@](C)(O)C1)C2` [Example 184, ((1s,3s)-3-Hydroxy-3-methylcyclobutyl)(6-(2-methylbenzyl)-2-azaspiro[3.3]heptan-2-yl)methanone] stands 14 nM.
Then `CC(C)c1ccc(CC2CC3(C2)CN(C(=O)[C@H]2C[C@@](C)(O)C2)C3)cc1` [Example 185, ((1s,3s)-3-Hydroxy-3-methylcyclobutyl)(6-(4-isopropylbenzyl)-2-azaspiro[3.3]heptan-2-yl)methanone], with 2.3 nM; and `CC(C)c1cccc(CC2CC3(C2)CN(C(=O)[C@H]2C[C@@](C)(O)C2)C3)c1` [Example 186, ((1s,3s)-3-Hydroxy-3-methylcyclobutyl)(6-(3-isopropylbenzyl)-2-azaspiro[3.3]heptan-2-yl)methanone], with 4.7 nM.
`CC(C)c1ccccc1CC1CC2(C1)CN(C(=O)[C@H]1C[C@@](C)(O)C1)C2` [Example 187, ((1s,3s)-3-Hydroxy-3-methylcyclobutyl)(6-(2-isopropylbenzyl)-2-azaspiro[3.3]heptan-2-yl)methanone] displayed an IC50 of 12 nM.
`Cc1ccc(CC2CC3(C2)CN(C(=O)[C@H]2C[C@@](C)(O)C2)C3)cc1C` [Example 188, (6-(3,4-Dimethylbenzyl)-2-azaspiro[3.3]heptan-2-yl)((1s,3s)-3-hydroxy-3-methylcyclobutyl)methanone] yielded an IC50 of 4.3 nM.
Under `Cc1ccc(CC2CC3(C2)CN(C(=O)[C@H]2C[C@@](C)(O)C2)C3)cc1C(F)(F)F` [Example 189, ((1s,3s)-3-Hydroxy-3-methylcyclobutyl)(6-(4-methyl-3-(trifluoromethyl)benzyl)-2-azaspiro[3.3]heptan-2-yl)methanone] stands 3.5 nM; under `CC(C)(C)c1ccnc(CC2CC3(C2)CN(C(=O)[C@H]2C[C@@](C)(O)C2)C3)c1` [Example 190, (6-((4-(tert-Butyl)pyridin-2-yl)methyl)-2-azaspiro[3.3]heptan-2-yl)((1s,3s)-3-hydroxy-3-methylcyclobutyl)methanone], 73 nM; under `COc1cccc(CC2CC3(C2)CN(C(=O)[C@H]2C[C@@](C)(O)C2)C3)n1` [Example 191, ((1s,3s)-3-Hydroxy-3-methylcyclobutyl)(6-((6-methoxypyridin-2-yl)methyl)-2-azaspiro[3.3]heptan-2-yl)methanone], 159 nM.
Under `COc1ccc(CC2CC3(C2)CN(C(=O)[C@H]2C[C@@](C)(O)C2)C3)cc1` [Example 192, ((1s,3s)-3-Hydroxy-3-methylcyclobutyl)(6-(4-methoxybenzyl)-2-azaspiro[3.3]heptan-2-yl)methanone] stands 22 nM; under `C[C@]1(O)C[C@@H](C(=O)N2CC3(CC(Cc4cccc(C(F)(F)F)c4)C3)C2)C1` [Example 193, ((1s,3s)-3-Hydroxy-3-methylcyclobutyl)(6-(3-(trifluoromethyl)benzyl)-2-azaspiro[3.3]heptan-2-yl)methanone], 5.8 nM; under `C[C@]1(O)C[C@@H](C(=O)N2CC3(CC(Cc4cccc(OC(F)(F)F)c4)C3)C2)C1` [Example 194, ((1s,3s)-3-Hydroxy-3-methylcyclobutyl)(6-(3-(trifluoromethoxy)benzyl)-2-azaspiro[3.3]heptan-2-yl)methanone], 4.9 nM.
As for `C[C@]1(O)C[C@@H](C(=O)N2CC3(CC(Cc4ccc(C(F)(F)F)cc4)C3)C2)C1` [Example 195, ((1s,3s)-3-Hydroxy-3-methylcyclobutyl)(6-(4-(trifluoromethyl)benzyl)-2-azaspiro[3.3]heptan-2-yl)methanone], the IC50 is 4.2 nM.
`C[C@]1(O)C[C@@H](C(=O)N2CC3(CC(Cc4ccccc4OC(F)(F)F)C3)C2)C1` [Example 196, ((1s,3s)-3-Hydroxy-3-methylcyclobutyl)(6-(2-(trifluoromethoxy)benzyl)-2-azaspiro[3.3]heptan-2-yl)methanone] came in with an IC50 of 2.8 nM.
`COc1cccc(CC2CC3(C2)CN(C(=O)[C@H]2C[C@@](C)(O)C2)C3)c1` [Example 197, ((1s,3s)-3-Hydroxy-3-methylcyclobutyl)(6-(3-methoxybenzyl)-2-azaspiro[3.3]heptan-2-yl)methanone] returned an IC50 of 64 nM.
Under `C[C@]1(O)C[C@@H](C(=O)N2CC3(CC(Cc4ccc5ccccc5n4)C3)C2)C1` [Example 198, ((1s,3s)-3-Hydroxy-3-methylcyclobutyl)(6-(quinolin-2-ylmethyl)-2-azaspiro[3.3]heptan-2-yl)methanone] stands 56 nM; under `C[C@]1(O)C[C@@H](C(=O)N2CC3(CC(Cc4ccccc4C(F)(F)F)C3)C2)C1` [Example 199, ((1s,3s)-3-Hydroxy-3-methylcyclobutyl)(6-(2-(trifluoromethyl)benzyl)-2-azaspiro[3.3]heptan-2-yl)methanone], 4.1 nM.
Under `Cc1cc(CC2CC3(C2)CN(C(=O)[C@H]2C[C@@](C)(O)C2)C3)ccc1C1CC1` [Example 202, (6-(4-Cyclopropyl-3-methylbenzyl)-2-azaspiro[3.3]heptan-2-yl)((1s,3s)-3-hydroxy-3-methylcyclobutyl)methanone] stands 0.6 nM.
`C[C@]1(O)C[C@@H](C(=O)N2CC3(CC(Cc4ccncc4)C3)C2)C1` [Example 206, ((1s,3s)-3-Hydroxy-3-methylcyclobutyl)(6-(pyridin-4-ylmethyl)-2-azaspiro[3.3]heptan-2-yl)methanone] had an IC50 of 1140 nM.
Under `Cc1cccc(CC2CC3(C2)CN(C(=O)[C@H]2C[C@@](C)(O)C2)C3)c1C1CC1` [Example 207, (6-(2-Cyclopropyl-3-methylbenzyl)-2-azaspiro[3.3]heptan-2-yl)((1s,3s)-3-hydroxy-3-methylcyclobutyl)methanone] stands 1.7 nM.
`CC(C)(C)c1ccccc1CC1CC2(C1)CN(C(=O)[C@H]1C[C@@](C)(O)C1)C2` [Example 208, (6-(2-(tert-Butyl)benzyl)-2-azaspiro[3.3]heptan-2-yl)((1s,3s)-3-hydroxy-3-methylcyclobutyl)methanone] displayed an IC50 of 5.3 nM.
Under `Cc1cccc(CC2CC3(C2)CN(C(=O)[C@H]2C[C@@](C)(O)C2)C3)c1C(F)(F)F` [Example 209, ((1s,3s)-3-Hydroxy-3-methylcyclobutyl)(6-(3-methyl-2-(trifluoromethyl)benzyl)-2-azaspiro[3.3]heptan-2-yl)methanone] stands 2.2 nM.
Then `CC(C)c1c(CC2CC3(C2)CN(C(=O)[C@H]2C[C@@](C)(O)C2)C3)cccc1C(F)(F)F` [Example 210, ((1s,3s)-3-Hydroxy-3-methylcyclobutyl)(6-(2-isopropyl-3-(trifluoromethyl)benzyl)-2-azaspiro[3.3]heptan-2-yl)methanone], with 0.8 nM; and `Cc1ccc(C(F)(F)F)c(CC2CC3(C2)CN(C(=O)[C@H]2C[C@@](C)(O)C2)C3)c1` [Example 211, ((1s,3s)-3-Hydroxy-3-methylcyclobutyl)(6-(5-methyl-2-(trifluoromethyl)benzyl)-2-azaspiro[3.3]heptan-2-yl)methanone], with 4.1 nM.
